Data on four compounds can be found in PubChem BioAssay (NCI).

What all share (test): NCI anticancer screen, dose series, 48 h
Assay [1] deals with K-562 leukemia.
In assay [2] the test system is T-47D breast.
Assay [3] deals with PC-3 prostate.
In assay [4] the test system is DU-145 prostate.
Assay [5] has as its system A549 NSCLC.
In assay [6] the test system is MDA-MB-435.
Assay [7] relates to M14 melanoma.
Assay [8] relates to NCI-H23 lung.
Assay [9] has as its system TK-10 renal.
Assay [10] relates to MALME-3M melanoma.

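Method: 48-hour compound exposure of cells in 96-well plates, five concentrations, linear interpolation of endpoints. The concentration for full growth arrest is given as TGI.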

For `O=c1[nH]nc(-c2ccccc2)n1/N=C/c1cccnc1`, the TGI in assay [1], in assay [2], in [3], in [4], in assay [5] and in assay [6] was above 100 µM in each case. Besides, the TGI in assay [7], in [8], in assay [9] and in assay [10] was above 100 µM throughout.

`COc1ccc(NC(C)=O)cc1N1C(=O)/C(=C\c2cc(OC)c(OC)c(OC)c2)SC1c1ccccc1` (stereo not given): the TGI in [1], in assay [2], in assay [3], in assay [4], in assay [5] and in [6] was above 100 µM in each case. The TGI in assay [7], in assay [8], in [9] and in assay [10] was above 100 µM each time.

For the compound `O=C(O)c1nc(-c2ccccc2)[nH]c1C(=O)O`, the TGI is 15.3 µM in assay [1]; 33.1 µM in assay [2]; 11.6 µM in [3]; 28.2 µM in assay [4]; 29.3 µM in assay [5]; 21.3 µM in assay [6]. Besides, the TGI in [7] was 25.2 µM; in assay [8], 31.8 µM; in assay [9], 28.8 µM; in assay [10] it was 30.6 µM.

For `CN1CCN(CCCBr)CC1`, the TGI in assay [1], in assay [2], in assay [3], in [4], in [5] and in assay [6] was above 100 µM throughout. Also, the TGI in assay [7], in [8], in assay [9] and in assay [10] was above 100 µM in each case.
